Patent publication US20120213860A1, “XENON-BASED INHALABLE DRUG FOR TREATING OR PREVENTING INDUCED DYSKINESIA” (L'Air Liquide Societe Anonyme Pour L'Etude Et …, priority 2009, published 2012)

Test system: dyskinesias induced by levodopa
Test: levodopa-induced abnormal involuntary movements (AIMs) in rats with unilateral 6-OHDA lesions (animal model of Parkinson's disease)
Assay type: in vivo, Sprague-Dawley rats
Experimental: More precisely, the effects of administering several gases as treatment of dyskinesias were evaluated in rats having lesions produced by unilateral injection of 6-OHDA (6-hydroxydopamine, a powerful neurotoxic) in an ascending nigrostriatal pathway (animal model of Parkinson's disease). In this model, long-term treatment of rats with levodopa induces abnormal involuntary movements (AIMs) that are similar to those in dyskinesias induced by levodopa in humans. The rats with lesions induced by 6-OHDA serving as the model of Parkinson's disease are prepared as follows. 16 Sprague-Dawley rats weighing between 250 and 300 g are kept in a room with controlled temperature (about 22° C.) with day/night cycles of 12 h, with free access to food and water. The animals receive, 30 min before the intervention, an intraperitoneal injection of pargyline (5 mg/kg; inhibitor of monoamine oxidase-B) and of desipramine (25 mg/kg; norepinephrine reuptake inhibitor). The animals are put in an anesthesia chamber with continuous flow of oxygen at 1.5 l/minute and 3% isoflurane. After anesthesia, the animals are placed in a stereotaxic frame. […] The injection site is localized according to the coordinates relative to bregma: −2.8 mm rostral, 2 mm lateral and 9 mm under the cranium (Paxinos and Watson, 1986). The rats are left to recover for 3 weeks after the lesions. The animals receive 0.05 mg/kg s.c. of apomorphine. […] The animals that remain receive an administration of 6 mg/kg of levodopa and 15 mg/kg of benzerazide (i.p.), twice a day, for 21 consecutive days. During these 21 days, the abnormal involuntary movements (AIMs) are assessed on days 1, 7, 14 and 21. The therapeutic treatments begin on day 22. They consist of administering the following to the rats by inhalation: • xenon/O2 gas mixtures (50%/50% by volume) as test gas according to the invention and; • N2/O2 gas mixtures (50%/50% by volume) as control. The gas mixtures are premixtures supplied by Air Liquide™. The gas concentrations are monitored continuously. Exposure to the gases is effected in a Plexiglas chamber with a length of 42 cm, and width and height of 26 cm. Each time, 4 or 5 rats are put in the chamber and inhale the test gas for 1 h. The chamber is supplied with fresh gas at a flow rate of 4 l/min. The abnormal involuntary movements (AIMs) are assessed for 180 min after injection of levodopa. More precisely, the animals are put in boxes (22 cm×34 cm×20 cm) and are left there for 15 minutes for them to become accustomed to their environment. Levodopa methyl ester (6 mg/kg, i.p.) is then administered at time intervals of 1 minute between rats. Each rat is observed for 1 minute at intervals of 30 minutes after injection and for a period of 180 min. Four subtypes of AIMs are assessed, namely: • Locomotor (Lo): increased movements contralateral to the lesion, • Hind limbs (Li): uncontrolled random movements of the hind limbs contralateral to the lesion, • Orolingual (Ol): excessive mastication and jaw movements with tongue protrusion, • Axial (Ax): dystonic postures or choreiform twisting of the neck and of the upper body contralaterally. The severity of the MIAs is scored from 1 to 4 according to the duration of the MIAs over an observation period of one minute: • 0.1=presence of MIAs for less than 30 s • 0.2=presence of MIAs for more than 30 s • 0.3=presence of MIAs during the minute with interruption by external stimuli • 0.4=presence of MIAs during the minute without interruption by external stimuli

[1] = parkinsonian rat, xenon/O2 50%/50% by volume inhaled 1 h, vs control N2/O2 50%/50%, amplitude and duration
[2] = parkinsonian rat, xenon/O2 50%/50% inhaled, vs control N2/O2

`[Xe]` [xenon] was tested, and the “appearance of the 4 types of dyskinesias (Lo, Li, Ol, Ax)” value (animals breathing xenon/O2 (50%/50% by volume), amplitude and duration) was “greatly reduced”, the “axial dyskinesias (Ax), kinetics following administration of L-Dopa (FIG. 3A)” value [1] was “clear decrease” and the “hind limb dyskinesias (Li), kinetics following administration of L-Dopa (FIG. 4A)” value [1] was “significant decrease”. The “locomotor dyskinesias (Lo), kinetics following administration of L-Dopa (FIG. 6A)” value [1] was “large decrease”, the “orolingual dyskinesias (Ol), kinetics following administration of L-Dopa (FIG. 5A)” value [1] was “clear decrease” and the “mean value of hind limb dyskinesias (Li) from 60 to 180 min (FIG. 4B)” value [2] was “fewer hind limb dyskinesias”. For the same compound, the “mean value of locomotor dyskinesias from 60 to 180 min (FIG. 6B)” value [2] was “fewer locomotor dyskinesias”, the “mean value of orolingual dyskinesias (Ol) from 60 to 180 min (FIG. 5B)” value [2] was “fewer orolingual dyskinesias” and the “mean value of the axial dyskinesias from 60 to 180 min (FIG. 3B)” value [2] was “fewer axial dyskinesias”.
